pIC50: −log10 of the molar value. Calls of active or inactive are those of the source. The calls are words filed in the database; no cut-off is given here. Peptide text beside a SMILES is read from it. * marks the point of attachment. X1 = CCC1(C(=O)OCCS*)C(=O)OCc2c1cc1n(c2=O)Cc2cc3ccccc3nc2-1
Legend:
[1] = Cytotoxicity against HER-negative human MCF-10A cells incubated for 48 hrs by CCK-8 assay; type: toxicity, cell-based
SK-BR-3 [2] = assay: Induction of apoptosis in human SK-BR-3 cells assessed as live cells at 1 uM incubated for 24 hrs by Annexin V-FITC/PI staining based flow cytometry analysis (reference value: 94.6%); type: functional
SK-BR-3 [3] = assay: Induction of apoptosis in human SK-BR-3 cells assessed as early apoptotic cells at 1 uM incubated for 24 hrs by Annexin V-FITC/PI staining based flow cytometry analysis (reference value: 2.80%); type: functional
SK-BR-3 [4] = assay: Induction of apoptosis in human SK-BR-3 cells assessed as late apoptotic cells at 1 uM incubated for 24 hrs by Annexin V-FITC/PI staining based flow cytometry analysis (reference value: 1.11%); type: functional
SK-BR-3 [5] = assay: Induction of apoptosis in human SK-BR-3 cells assessed as downregulation of cIAP1 protein expression at 2.5 to 5 uM incubated for 24 hrs by Western blot analysis; type: functional, cell-based; conditions: dose 2.5-5 µM
SK-BR-3 [6] = assay: Induction of apoptosis in human SK-BR-3 cells assessed as downregulation of XIAP protein expression at 2.5 uM by Western blot analysis; type: functional, cell-based; conditions: time 24-48 hrs, TDE = time-dependent effect
SK-BR-3 [7] = assay: Induction of apoptosis in human SK-BR-3 cells assessed as caspase-3 activation by measuring increase in green fluorescence incubated for 24 hrs by GreenNuc substrate/Hoechst 33342 staining based fluorescence microscopic analysis; type: functional, cell-based
SK-BR-3 [8] = assay: Induction of apoptosis in human SK-BR-3 cells assessed as increase in ROS level by flow cytometry analysis; type: functional, cell-based
[9] = Drug release in human SK-BR-3 cells assessed as cathepsin-mediated SMAC polypeptide release at 10 uM incubated for 6 hrs by FITC/Lysotracker red dye based laser confocal microscopic analysis; type: ADME, cell-based; conditions: sk-br-3, 6 h
[10] = molecular target: T1, DNA topoisomerase 1 (Homo sapiens) (UniProt P11387); assay: Inhibition of topoisomerase 1 (unknown origin) assessed as reduction in DNA relaxation by measuring increase in supercoiled DNA level pretreated for 20 mins in water bath followed by pBR322 DNA addition and measured after 30 mins by agarose gel electrophoresis; conditions: dose 1-100 µM, time 50.0 min
T1 sequence (whole entry): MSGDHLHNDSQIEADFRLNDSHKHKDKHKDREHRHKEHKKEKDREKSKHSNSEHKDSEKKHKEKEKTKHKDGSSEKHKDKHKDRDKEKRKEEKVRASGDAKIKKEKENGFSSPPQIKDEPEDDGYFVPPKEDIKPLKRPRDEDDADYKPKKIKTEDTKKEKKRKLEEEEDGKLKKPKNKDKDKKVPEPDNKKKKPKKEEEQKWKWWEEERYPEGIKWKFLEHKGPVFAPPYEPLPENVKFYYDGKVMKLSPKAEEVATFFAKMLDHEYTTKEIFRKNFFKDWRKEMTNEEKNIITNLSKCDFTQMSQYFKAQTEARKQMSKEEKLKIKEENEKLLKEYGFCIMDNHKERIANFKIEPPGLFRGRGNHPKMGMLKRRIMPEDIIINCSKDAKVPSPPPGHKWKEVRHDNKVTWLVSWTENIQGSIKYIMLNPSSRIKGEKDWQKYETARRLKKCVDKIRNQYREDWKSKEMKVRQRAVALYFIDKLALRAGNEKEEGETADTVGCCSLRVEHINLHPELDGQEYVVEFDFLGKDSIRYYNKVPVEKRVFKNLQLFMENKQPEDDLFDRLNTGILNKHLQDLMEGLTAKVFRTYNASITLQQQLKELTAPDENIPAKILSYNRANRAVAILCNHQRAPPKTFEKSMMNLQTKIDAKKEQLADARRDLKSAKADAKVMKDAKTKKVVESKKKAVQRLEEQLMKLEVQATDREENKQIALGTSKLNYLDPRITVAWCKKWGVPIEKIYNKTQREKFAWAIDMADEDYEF

SK-BR-3 [11] = assay: Antitumor activity against human SK-BR-3 cells xenografted in nude mouse assessed as inhibition of tumor growth at 8 umol/kg, iv administered every 3 days for 14 days and measured every 2 days by vernier caliper analysis; type: functional, organism-based; conditions: dose 8.0 µmol/kg, time 14.0 day
[12] = Toxicity in nude mouse xenografted with human SK-BR-3 cells assessed as increase in AST level at 8 umol/kg, iv administered every 3 days for 14 days; type: organism-based; conditions: in vivo, 336 h, dose 8 µmol/kg, time 14 day
[13] = Toxicity in nude mouse xenografted with human SK-BR-3 cells assessed as change in blood urea nitrogen level at 8 umol/kg, iv administered every 3 days for 14 days; type: organism-based; conditions: in vivo, 336 h, dose 8 µmol/kg, time 14 day
[14] = Toxicity in nude mouse xenografted with human SK-BR-3 cells assessed as change in creatinine level at 8 umol/kg, iv administered every 3 days for 14 days; type: organism-based; conditions: in vivo, 336 h, dose 8 µmol/kg, time 14 day
[15] = Toxicity in nude mouse xenografted with human SK-BR-3 cells assessed as change in alkaline phosphatase level at 8 umol/kg, iv administered every 3 days for 14 days; type: organism-based; conditions: in vivo, 336 h, dose 8 µmol/kg, time 14 day
[16] = Toxicity in nude mouse xenografted with human SK-BR-3 cells assessed as change in albumin level at 8 umol/kg, iv administered every 3 days for 14 days; type: organism-based; conditions: in vivo, 336 h, dose 8 µmol/kg, time 14 day
[17] = Toxicity in nude mouse xenografted with human SK-BR-3 cells assessed as change in globulin level at 8 umol/kg, iv administered every 3 days for 14 days; type: organism-based; conditions: in vivo, 336 h, dose 8 µmol/kg, time 14 day
[18] = Toxicity in nude mouse xenografted with human SK-BR-3 cells assessed as cell necrosis in heart at 8 umol/kg, iv administered every 3 days for 14 days by H and E staining based analysis; type: organism-based; conditions: in vivo, 336 h, dose 8 µmol/kg, time 14 day
[19] = Toxicity in nude mouse xenografted with human SK-BR-3 cells assessed as cell necrosis in liver at 8 umol/kg, iv administered every 3 days for 14 days by H and E staining based analysis; type: organism-based; conditions: in vivo, 336 h, dose 8 µmol/kg, time 14 day
[20] = Toxicity in nude mouse xenografted with human SK-BR-3 cells assessed as cell necrosis in lung at 8 umol/kg, iv administered every 3 days for 14 days by H and E staining based analysis; type: organism-based; conditions: in vivo, 336 h, dose 8 µmol/kg, time 14 day
[21] = Toxicity in nude mouse xenografted with human SK-BR-3 cells assessed as cell necrosis in kidney at 8 umol/kg, iv administered every 3 days for 14 days by H and E staining based analysis; type: organism-based; conditions: in vivo, 336 h, dose 8 µmol/kg, time 14 day
[22] = Toxicity in nude mouse xenografted with human SK-BR-3 cells assessed as inflammatory cell infiltration in heart at 8 umol/kg, iv administered every 3 days for 14 days by H and E staining based analysis; type: organism-based; conditions: in vivo, 336 h, dose 8 µmol/kg, time 14 day
[23] = Toxicity in nude mouse xenografted with human SK-BR-3 cells assessed as inflammatory cell infiltration in liver at 8 umol/kg, iv administered every 3 days for 14 days by H and E staining based analysis; type: organism-based; conditions: in vivo, 336 h, dose 8 µmol/kg, time 14 day
[24] = Toxicity in nude mouse xenografted with human SK-BR-3 cells assessed as inflammatory cell infiltration in spleen at 8 umol/kg, iv administered every 3 days for 14 days by H and E staining based analysis; type: organism-based; conditions: in vivo, 336 h, dose 8 µmol/kg, time 14 day
[25] = Toxicity in nude mouse xenografted with human SK-BR-3 cells assessed as inflammatory cell infiltration in lung at 8 umol/kg, iv administered every 3 days for 14 days by H and E staining based analysis; type: organism-based; conditions: in vivo, 336 h, dose 8 µmol/kg, time 14 day
[26] = Toxicity in nude mouse xenografted with human SK-BR-3 cells assessed as inflammatory cell infiltration in kidney at 8 umol/kg, iv administered every 3 days for 14 days by H and E staining based analysis; type: organism-based; conditions: in vivo, 336 h, dose 8 µmol/kg, time 14 day
SK-OV-3 = assay: cells; conditions: Homo sapiens, SK-OV-3, 48 h
Description: Cytotoxicity against HER-positive human SK-OV-3 cells incubated for 48 hrs by CCK-8 assay

For CC[C@H](C)[C@H](NC(=O)[C@@H]1CCCN1C(=O)[C@@H](NC(=O)[C@H](C)N)C(C)C)C(=O)N[C@@H](C)C(=O)N[C@@H](CCC(N)=O)C(=O)N[C@@H](CCCCN)C(=O)N[C@@H](CSSCCOC(=O)C1(CC)C(=O)OCc2c1cc1n(c2=O)Cc2cc3ccccc3nc2-1)C(=O)NCC(=O)N[C@@H](Cc1ccccc1)C(=O)N[C@@H](CC(C)C)C(=O)NCC(=O)N[C@@H](CC(N)=O)C(=O)N1CCC[C@H]1C(=O)N[C@@H](CC(N)=O)C(=O)N[C@@H](Cc1c[nH]c2ccccc12)C(=O)NCC(=O)N[C@@H](CCCNC(=N)N)C(=O)N[C@@H](CO)C(=O)N[C@@H](Cc1c[nH]c2ccccc12)C(=O)N[C@@H](Cc1ccc(O)cc1)C(=O)N[C@@H](CC(N)=O)C(=O)N[C@@H](CCC(N)=O)C(=O)N[C@@H](CCCNC(=N)N)C(=O)N[C@@H](Cc1ccccc1)C(=O)N[C@@H](CCCCN)C(N)=O (some centres not stated) (H-AVPIAQKC(X1)GFLGNPNWGRSWYNQRFK-NH2), the IC50 at 48 h [1] was 17.8 µM, the Activity (SK-BR-3 [2]) was 61.1% and the Activity (SK-BR-3 [3]) was 26%. The Activity (SK-BR-3 [4]) was 9.46%, the Activity (SK-BR-3 [5]) was “Active” and the Activity (SK-BR-3 [6]) was “Tde”. For the same compound, the Activity (SK-BR-3 [7]) was “Active”, the Activity (SK-BR-3 [8]) was “Active” and the Drug metabolism [9] was “Metabolite_Detected”. The inhibition [10] was “Dose-Dependent Effect”, the Activity (SK-BR-3 [11]) was “Active” and the Activity [12] was “Toxic”. The Activity [13] was “Non-Toxic”, the Activity [14] was “Non-Toxic” and the Activity [15] was “Non-Toxic”. For the same compound, the Activity [16] was “Non-Toxic”, the Activity [17] was “Non-Toxic” and the Activity [18] was “Non-Toxic”. The Activity [19] was “Non-Toxic”, the Activity [20] was “Non-Toxic” and the Activity [21] was “Non-Toxic”. The Activity [22] was “Non-Toxic”, the Activity [23] was “Non-Toxic” and the Activity [24] was “Non-Toxic”. For the same compound, the Activity [25] was “Non-Toxic”, the Activity [26] was “Non-Toxic” and the pIC50 (SK-OV-3) was 5.60.

Reference: ChEMBL document CHEMBL5537151, “Design, synthesis and bioactivity evaluation of novel fusion peptides and their CPT conjugates inducing effective anti-tumor responses on HER2 positive tumors” (Eur J Med Chem, 2024)
